Source: patent publication US11732000B2, “Oxysterols and methods of use thereof” (Sage Therapeutics, Inc., priority 2015, dated 2023)

Biological target: T1, GlunN1/GluN2A glutamate receptors (Homo sapiens, UniProt Q05586+Q12879)
T1 construct: expressed in transfected cells
Test: NMDA potentiation, whole-cell patch clamp of mammalian cells (IonWorks Barracuda, IWB)
Assay type: cell-based
Settings: 3 μM test article, HEK293 cells expressing human GRIN1/GRIN2A, co-application with EC20 L-glutamate and 30 μM glycine; for activation at 3 µM: read-out: GluN2A PCA IWB Ephys % potentiation at 3 μM
Description: NMDA potentiation was assessed using either whole cell patch clamp of mammalian cells which expressed NMDA receptors.
Whole-Cell Patch Clamp of Mammalian Cells (IONWORKS BARRACUDA® (IWB))
The whole-cell patch-clamp technique was used to investigate the effects of compounds GlunN1/GluN2A glutamate receptors expressed in mammalian cells.
HEK293 cells were transformed with adenovirus 5 DNA and transfected with cDNA encoding the human GRIN1/GRIN2A genes. Stable transfectants were selected using G418 and ZEOCIN™ (phleomycins)-resistance genes incorporated into the expression plasmid and selection pressure maintained with G418 and ZEOCIN™ (phleomycins) in the medium. Cells were cultured in Dulbecco's Modified Eagle Medium/Nutrient Mixture (D-MEM/F-12) supplemented with 10% fetal bovine serum, 100 μg/ml penicillin G sodium, 100 μg/ml streptomycin sulphate, 100 μg/ml Zeocin, 5 μg/ml blasticidin and 500 μg/ml G418.
Test article effects were evaluated in 8-point concentration-response format (4 replicate wells/concentration). All test and control solutions contained 0.3% DMSO and 0.01% KOLLIPHOR® (polyethoxylated castor oil) EL (C5135, Sigma). The test article formulations were loaded in a 384-well compound plate using an automated liquid handling system (SCICLONE® ALH3000, Caliper Life Sciences). The measurements were performed using IWB platform following this procedure:
Electrophysiological Procedures:
• a) Intracellular solution (mM): 50 mM CsCl, 90 mM CsF, 2 mM MgCl2, 5 mM EGTA, 10 mM HEPES. Adjust to pH 7.2 with CsOH. • b) Extracellular solution, HB-PS (composition in mM): NaCl, 137; KCl, 1.0; CaCl2), 5; HEPES, 10; Glucose, 10; pH adjusted to 7.4 with NaOH (refrigerated until use). • c) Holding potential: −70 mV, potential during agonist/PAM application: −40 mV. Recording Procedure: • a) Extracellular buffer will be loaded into the PPC plate wells (11 μL per well). Cell suspension will be pipetted into the wells (9 μL per well) of the PPC planar electrode. • b) Whole-cell recording configuration will be established via patch perforation with membrane currents recorded by on-board patch clamp amplifiers. • c) Two recordings (scans) will be performed. First, during pre-application of test article alone (duration of pre-application −5 min) and second, during test articles and agonist (EC20 L-glutamate and 30 μM glycine) co-application to detect positive modulatory effects of the test article.
Test Article Administration: The first pre-application will consist of the addition of 20 μL of 2× concentrated test article solution and, second, of 20 μL of 1× concentrated test article and agonist at 10 μL/s (2 second total application time).

T1 sequence (Q12879 23-1464, other chains not shown): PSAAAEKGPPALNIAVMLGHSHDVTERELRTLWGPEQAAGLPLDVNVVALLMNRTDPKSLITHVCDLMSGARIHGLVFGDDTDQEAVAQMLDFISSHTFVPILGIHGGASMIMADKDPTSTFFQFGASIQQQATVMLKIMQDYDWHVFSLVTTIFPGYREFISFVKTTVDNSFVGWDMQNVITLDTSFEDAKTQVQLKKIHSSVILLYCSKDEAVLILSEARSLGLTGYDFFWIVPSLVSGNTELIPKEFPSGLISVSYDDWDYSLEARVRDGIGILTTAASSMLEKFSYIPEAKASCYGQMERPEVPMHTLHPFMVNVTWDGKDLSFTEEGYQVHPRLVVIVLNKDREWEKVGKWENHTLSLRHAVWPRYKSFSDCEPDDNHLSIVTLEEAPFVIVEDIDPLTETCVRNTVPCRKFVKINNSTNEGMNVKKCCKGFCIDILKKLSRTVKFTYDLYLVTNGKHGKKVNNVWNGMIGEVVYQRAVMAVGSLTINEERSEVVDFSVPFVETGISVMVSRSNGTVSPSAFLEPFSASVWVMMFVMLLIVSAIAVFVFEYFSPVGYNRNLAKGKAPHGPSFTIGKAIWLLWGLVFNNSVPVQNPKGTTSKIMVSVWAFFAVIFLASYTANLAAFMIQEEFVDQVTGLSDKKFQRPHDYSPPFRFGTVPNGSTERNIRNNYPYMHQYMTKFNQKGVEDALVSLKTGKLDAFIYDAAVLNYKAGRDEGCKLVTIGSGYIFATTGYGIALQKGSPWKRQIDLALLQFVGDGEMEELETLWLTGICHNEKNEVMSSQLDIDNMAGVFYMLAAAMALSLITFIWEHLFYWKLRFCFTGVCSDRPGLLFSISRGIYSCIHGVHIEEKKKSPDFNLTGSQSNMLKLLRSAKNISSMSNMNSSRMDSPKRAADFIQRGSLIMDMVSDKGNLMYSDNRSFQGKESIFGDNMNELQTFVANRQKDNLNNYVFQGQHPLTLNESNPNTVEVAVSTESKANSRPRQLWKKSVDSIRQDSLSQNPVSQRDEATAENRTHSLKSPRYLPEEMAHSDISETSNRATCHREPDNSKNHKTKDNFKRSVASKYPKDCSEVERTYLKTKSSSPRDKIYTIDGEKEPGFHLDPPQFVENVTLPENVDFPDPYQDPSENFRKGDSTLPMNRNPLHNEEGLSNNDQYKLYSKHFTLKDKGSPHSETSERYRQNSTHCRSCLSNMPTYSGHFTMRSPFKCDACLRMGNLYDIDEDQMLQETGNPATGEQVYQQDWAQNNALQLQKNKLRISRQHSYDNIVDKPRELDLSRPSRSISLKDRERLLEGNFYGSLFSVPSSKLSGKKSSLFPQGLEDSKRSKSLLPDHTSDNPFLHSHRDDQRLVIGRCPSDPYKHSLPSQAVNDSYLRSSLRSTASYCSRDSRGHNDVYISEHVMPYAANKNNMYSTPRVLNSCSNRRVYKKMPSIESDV

Row | GluN2A PCA IWB Ephys % potentiation at 3 μM | SMILES | activation at 3 µM [%]
1 | C (“C” indicates potentiation of >150%) | CC[C@]1(O)CC[C@@]2(C)C(=CC[C@H]3[C@@H]4CC[C@H]([C@H](C)CC[C@@H](O)C5CC5)[C@@]4(C)CC[C@@H]32)C1 [Compound 26] | 
2 |  | C[C@H](CC[C@@H](O)CC(F)(F)F)[C@H]1CC[C@H]2[C@@H]3CC=C4C[C@@](C)(O)CC[C@]4(C)[C@H]3CC[C@]12C [Compound 46] | > 150
3 |  | CC[C@]1(O)CC[C@@]2(C)[C@@H](CC[C@@H]3[C@@H]2CC[C@]2(C)[C@@H]([C@H](C)CCC(C)O)CC[C@@H]32)C1 (stereo partly shown) [Compound 33] | 10 to 75
4 | C (“C” indicates potentiation of >150%) | C[C@H](CC[C@H](O)C1CC1)[C@H]1CC[C@H]2[C@@H]3CC=C4C[C@@](C)(O)CC[C@]4(C)[C@H]3CC[C@]12C [Compound 28] | 
5 |  | C[C@H](CC[C@@H](O)C1CCC1)[C@H]1CC[C@H]2[C@@H]3CC=C4C[C@@](C)(O)CC[C@]4(C)[C@H]3CC[C@]12C [Compound 41-B] | > 150
6 |  | CC[C@@H](O)CC[C@@H](C)[C@H]1CC[C@H]2[C@@H]3CC[C@H]4C[C@](O)(CC)CC[C@]4(C)[C@H]3CC[C@]12C [Compound 35] | 75 to 150
7 |  | CC[C@]1(O)CC[C@@]2(C)C(=CC[C@H]3[C@@H]4CC[C@H]([C@H](C)CC[C@@H](O)CC(F)(F)F)[C@@]4(C)CC[C@@H]32)C1 [Compound 54] | > 150
8 | C (“C” indicates potentiation of >150%) | C[C@H](CC[C@H](O)C1CCC1)[C@H]1CC[C@H]2[C@@H]3CC=C4C[C@@](C)(O)CC[C@]4(C)[C@H]3CC[C@]12C [Compound 41-A] | 
9 |  | CC[C@]1(O)CC[C@@]2(C)C(=CC[C@H]3[C@@H]4CC[C@H]([C@H](C)CC[C@H](O)C(C)C)[C@@]4(C)CC[C@@H]32)C1 [Compound 10] | > 150
10 |  | CC[C@H](O)CC[C@@H](C)[C@H]1CC[C@H]2[C@@H]3CC=C4C[C@](O)(CC)CC[C@]4(C)[C@H]3CC[C@]12C [Compound 23] | > 150
11 |  | CC[C@]1(O)CC[C@@]2(C)[C@@H](CC[C@@H]3[C@@H]2CC[C@]2(C)[C@@H]([C@H](C)CC[C@H](O)C(C)C)CC[C@@H]32)C1 [Compound 13] | > 150
12 | C (“C” indicates potentiation of >150%) | C[C@H](CC[C@H](O)C1CCOCC1)[C@H]1CC[C@H]2[C@@H]3CC=C4C[C@@](C)(O)CC[C@]4(C)[C@H]3CC[C@]12C [Compound 44-A] | 
13 |  | C[C@H](CCC(O)C1CC1)[C@H]1CC[C@H]2[C@@H]3CC[C@H]4C[C@@](C)(O)CC[C@]4(C)[C@H]3CC[C@]12C (stereo partly shown) [Compound 30] | > 150
14 |  | C[C@H](CC[C@H](O)CC(F)(F)F)[C@H]1CC[C@H]2[C@@H]3CC[C@H]4C[C@@](C)(O)CC[C@]4(C)[C@H]3CC[C@]12C [Compound 47] | > 150
15 |  | CC(C)[C@H](O)CC[C@@H](C)[C@H]1CC[C@H]2[C@@H]3CC=C4C[C@@](C)(O)CC[C@]4(C)[C@H]3CC[C@]12C [Compound 19] | > 150
16 |  | C[C@H](CC[C@H](O)CC(F)(F)F)[C@H]1CC[C@H]2[C@@H]3CC=C4C[C@@](C)(O)CC[C@]4(C)[C@H]3CC[C@]12C [Compound 45] | > 150
17 |  | CC[C@H](O)CC[C@@H](C)[C@H]1CC[C@H]2[C@@H]3CC[C@H]4C[C@](O)(CC)CC[C@]4(C)[C@H]3CC[C@]12C [Compound 36] | > 150
18 | C (“C” indicates potentiation of >150%) | C[C@H](CC[C@@H](O)C1CC1)[C@H]1CC[C@H]2[C@@H]3CC[C@H]4C[C@@](C)(O)CC[C@]4(C)[C@H]3CC[C@]12C [Compound 32] | 
19 |  | CC[C@]1(O)CC[C@@]2(C)[C@@H](CC[C@@H]3[C@@H]2CC[C@]2(C)[C@@H]([C@H](C)CCC(O)C4CC4)CC[C@@H]32)C1 (stereo partly shown) [Compound 38] | > 150
20 |  | CC[C@]1(O)CC[C@@]2(C)[C@@H](CC[C@@H]3[C@@H]2CC[C@]2(C)[C@@H]([C@H](C)CC[C@H](O)C4CC4)CC[C@@H]32)C1 [Compound 39] | 10 to 75
21 | C (“C” indicates potentiation of >150%) | CC[C@]1(O)CC[C@@]2(C)C(=CC[C@H]3[C@@H]4CC[C@H]([C@H](C)CC[C@H](O)CC(F)(F)F)[C@@]4(C)CC[C@@H]32)C1 [Compound 53] | 
22 |  | CC[C@H](O)CC[C@@H](C)[C@H]1CC[C@H]2[C@@H]3CC[C@H]4C[C@@](C)(O)CC[C@]4(C)[C@H]3CC[C@]12C [Compound 9] | 75 to 150
23 |  | CC[C@]1(O)CC[C@@]2(C)[C@@H](CC[C@@H]3[C@@H]2CC[C@]2(C)[C@@H]([C@H](C)CC[C@@H](O)C4CC4)CC[C@@H]32)C1 [Compound 40] | > 150
24 |  | CC[C@]1(O)CC[C@@]2(C)C(=CC[C@H]3[C@@H]4CC[C@H]([C@H](C)CCC(O)CC(F)(F)F)[C@@]4(C)CC[C@@H]32)C1 (stereo partly shown) [Compound 52] | > 150
25 |  | CC[C@]1(O)CC[C@@]2(C)C(=CC[C@H]3[C@@H]4CC[C@H]([C@H](C)CC[C@@H](O)C(C)C)[C@@]4(C)CC[C@@H]32)C1 [Compound 11] | > 150
26 |  | CCC(O)CC[C@@H](C)[C@H]1CC[C@H]2[C@@H]3CC[C@H]4C[C@](O)(CC)CC[C@]4(C)[C@H]3CC[C@]12C (stereo partly shown) [Compound 34] | > 150
27 |  | C[C@H](CCC(O)C1CCOCC1)[C@H]1CC[C@H]2[C@@H]3CC=C4C[C@@](C)(O)CC[C@]4(C)[C@H]3CC[C@]12C (stereo partly shown) [Compound 44] | > 150
28 | C (“C” indicates potentiation of >150%) | CC[C@]1(O)CC[C@@]2(C)[C@@H](CC[C@@H]3[C@@H]2CC[C@]2(C)[C@@H]([C@H](C)CC[C@@H](O)C(C)C)CC[C@@H]32)C1 [Compound 15] | 
29 |  | C[C@H](CC[C@@H](O)CC(F)(F)F)[C@H]1CC[C@H]2[C@@H]3CC[C@H]4C[C@@](C)(O)CC[C@]4(C)[C@H]3CC[C@]12C [Compound 48] | > 150

Row | SMILES | GluN2A PCA IWB Ephys % potentiation at 3 μM | activation at 3 µM [%]
30 | CC[C@]1(O)CC[C@@]2(C)C(=CC[C@H]3[C@@H]4CC[C@H]([C@H](C)CC[C@H](O)C5CC5)[C@@]4(C)CC[C@@H]32)C1 (single isomer, unassigned) [Compound 25] | C (“C” indicates potentiation of >150%) | 
31 | C[C@H](CC[C@@H](O)C1CC1)[C@H]1CC[C@H]2[C@@H]3CC=C4C[C@@](C)(O)CC[C@]4(C)[C@H]3CC[C@]12C [Compound 29] | B (“B” indicates potentiation of >75% to 150%) | 
